# Patent US20050113427A1, “Use of peroxynirite scavengers or peroxynitrite formation inhibitors that do not diminish nitric oxide synthesis or activity to reverse or prevent premature vascular senescence” (ArgiNOx, Inc., priority 2001, published 2005)
# Columns and labels:
# [1] = system: Human umbilical vein endothelial cells (HUVEC); assay: SA β-galactosidase staining of HUVEC grown on glycated collagen (premature senescence); assay type: cell-based; conditions: for reversal of premature senescence in HUVECs on GC (SA β-galactosidase staining, FIG. 1): HUVECs on GC 3 days, then compound every 12 hours until staining on day 5, GC dilutions 1:3, 1:6, 1:10 in native collagen; for development of premature senescence (SA β-galactosidase staining) in HUVECs grown on GC: ebselen 1 μmol/L, NOHA 0.1 mmol/L, MnTBAP 2.5 μmol/L, applied day 1, 2 hours after plating, added daily, studied day 3
# Experimental: Detection of SA-β-galactosidase was carried out utilizing the histochemical staining method of Dimitri et al, Proc. Natl. Acad. Sci. USA 92, 9363-9367 as modified by Van der Loo, B., et al, Exp. Cell Res. 241, 309-315 (1998). SA β-galactosidase is a known senescence marker. […] This phenomenon occurred in 12 week and 21 week-old diabetic rats, but was undetectable in age-matched Zucker lean rats (0/24 branches examined).
# Human umbilical vein endothelial cells (HUVEC) after four passages were plated on glycated collagen with or without the addition of 0.1 mM ebselen. Application was made on day 1, 2 hours after plating. The extent of SA β-galactosidase staining was evaluated on days 3 and 5 of culture on a glycated or native collagen matrix. In addition, to study the reversibility process, HUVEC were plated on glycated collagen for three days (time sufficient to induce premature senescence), and ebselen was added every 12 hours, starting on day 3, and the cells were examined on day 5.
# These concentrations of compounds were chosen based on preliminary experiments testing effects of a range of concentrations for each compound and selecting the lowest one which was efficient but non-cytotoxic. Ebselen, NOHA, and MnTBAP were each applied on day 1, 2 hours after HUVEC plating, added daily, and cells were studied on day 3. HUVECs grown on both glycated and native matrix were examined for the extent of SA β-galactosidase staining. […] In addition, to test for reversibility of senescence by ebselen, NOHA, or MnTBAP, HUVECs were plated on GC for 3 days (time sufficient to induce premature senescence) and thereafter ebselen (ebs), NOHA, or MnTBAP were added every 12 hours, until SA β-galactosidase staining on day 5. […] Dashed lines show the data obtained in HUVECs cultured on native collagen (NC).
# [2] = system: endothelial cells from saphenous vein; assay: Artificial vascular graft seeded with endothelial cells cultured with ebselen, implanted in patient (Example VI); assay type: in vivo, human; conditions: cells cultured with 10-100 μg/ml at 35° C. for 2-3 weeks; versus patients not receiving ebselen
# Experimental: A person with peripheral vascular disease is undergoing an elective femoral-to-popliteal bypass surgery utilizing an artificial vascular graft. A saphenous vein is obtained to harvest endothelial cells for expansion and seed onto the surface of a graft. Endothelial cells are isolated from the graft and cultured in a medium containing ebselen or ebselen-class compound at a concentration of 10-100 μg/ml at 35° C. for 2-3 weeks, and cells are seeded onto the graft in the continuous presence of the same concentration of ebselen or ebselen-class compound. Thus prepared, the vascular graft is implanted.
# Alzheimer's disease = assay: Patient with Alzheimer's disease treated with ebselen or ebselen-class compounds (Example III); assay type: in vivo, human; conditions: 1-20 mg/kg thrice/day alone or with antioxidant agents and vitamins; two years later
# Experimental: A person with no known medical conditions has been experiencing a sustained loss of short-term memory for the past three years. Their CBC, electrolytes and other plasma metabolites are within normal range. There is no vitamin deficiency, no abnormalities in liver function tests, and no previous history of cerebro-vascular accidents. […] Based on these findings the patient is diagnosed with Alzheimer's disease. Therapy with ebselen or other ebselen-class compounds is initiated at doses of 1-20 mg/kg thrice/day alone or in combination with antioxidant agents and vitamins (e.g., ascorbate, alpha-tocopherol, vitamin B6, vitamin B12, folate (folic acid), carotenoids, coenzyme Q10, phytoestrogens (including isoflavonoids), butylated hydroxytoluene (BHT), butylated hydroxyanisole (BHA) and n-3 polyunsaturated fatty acids (PUFA)).
# end stage renal disease = assay: Patient with end stage renal disease on chronic hemodialysis treated with ebselen (Example I); assay type: in vivo, human; conditions: ebselen 1-20 mg/kg thrice/day, 6 months later
# Excerpt: (In some cases, renal biopsy will be performed, which will directly disclose the deposition of AGE in the renal parenchyma and increased proportion of SA-beta-galactosidase-stained endothelial cells). […] In addition, the patient has their arteriovenous fistula revised 3 times due to clotting and stenosis. The patient is also complaining of a non-healing foot ulcer and intermittent claudication, both signs of peripheral vascular disease. […] Similar results are obtained in similar patients who are administered other ebselen-class compounds.
# diabetes mellitus = assay: Patient with poorly controlled diabetes mellitus treated with ebselen (Example II); assay type: in vivo, human; conditions: ebselen 1-20 mg/kg thrice/day, 6 months later
# Experimental: A patient with type I (alternatively, a patient with type 2) diabetes mellitus, past medical history of myocardial infarction, peripheral vascular disease, hypertension, proteinuria and non-healing foot ulcer, is receiving insulin, but experiences poor therapeutic response. Patient's fasting blood glucose level is 200 mg/dl. Additional laboratory findings include elevated Hgb Alc level (8.5%) as well as one of the following signs of AGE accumulation: elevated level of pentosidine (2.3 pmol/mg) or elevated level of Amadori serum albumin (41 U/ml). (In some cases, renal biopsy will be performed, which will directly disclose the deposition of AGE in the renal parenchyma and increased proportion of SA-beta-galactosidase-stained endothelial cells). […] Similar results are obtained in similar patients who are administered other ebselen-class compounds.
# [3] = system: endothelial cells from saphenous vein; assay: Artificial heart valve seeded with endothelial cells cultured with ebselen, implanted in patient (Example V); assay type: in vivo, human; conditions: cells cultured with 10-100 μg/ml at 35° C. for 2-3 weeks; versus patients not receiving ebselen
# Experimental: A person with a defective heart valve is being prepared for a surgical replacement of the valve with a prosthetic device. A saphenous vein is obtained to harvest endothelial cells for expansion and seeding onto the surface of a artificial valve. Endothelial cells are isolated from the graft and cultured in a medium containing ebselen or ebselen-class compound at a concentration of 10-100 μg/ml at 35° C. for 2-3 weeks and cells are seeded onto the valve in the continuous presence of the same concentration of ebselen or ebselen-class compound. Thus prepared, the artificial valve is implanted.
smiles,measurement,setting,value
N=C(N)NCCC[C@H](N)C(=O)O [L-arginine],"reversal of premature senescence in HUVECs on GC (SA β-galactosidase staining, FIG. 1)",[1],reversed senescence at low but not high concentrations of GC
"O=C(O)c1ccc(/C2=C3\C=CC(=N3)/C(c3ccc(C(=O)O)cc3)=c3/cc/c4[n]3[Mn]([Cl])[n]3c2ccc3/C(c2ccc(C(=O)O)cc2)=C2/C=CC(=N2)\C=4c2ccc(C(=O)O)cc2)cc1 [MnTBAP, [5,10,15,20-tetrakis(4-carboxyphenyl)-porphyrinato]manganese (III) chloride]","reversal of premature senescence in HUVECs on GC (SA β-galactosidase staining, FIG. 1)",[1],able to reverse premature senescence at all dilutions of GC
same,development of premature senescence (SA β-galactosidase staining) in HUVECs grown on GC,[1],completely abolished the development of premature senescence
"N=C(NO)NCCC[C@H](N)C(=O)O [NOHA, N^ω-hydroxyl-L-arginine]","reversal of premature senescence in HUVECs on GC (SA β-galactosidase staining, FIG. 1)",[1],able to reverse premature senescence at all dilutions of GC
same,development of premature senescence (SA β-galactosidase staining) in HUVECs grown on GC,[1],completely abolished the development of premature senescence
"O=c1c2ccccc2[se]n1-c1ccccc1 [ebselen, 2-phenyl-1,2-benzisoselenazol-3(2H)-one]",thrombotic and atheroembolic complications after vascular graft implantation,[2],less thrombotic and atheroembolic complications
same,symptoms related to the memory loss,Alzheimer's disease,no deterioration and a partial improvement of symptoms related to the memory loss
same,clinical outcome,end stage renal disease,"significant subjective improvement of coronary symptoms, renal disease, healing of foot ulcer, normalization of blood pressure"
same,pentosidine after treatment,end stage renal disease,1.7 pmol/mg
same,Amodori serum albumin after treatment,end stage renal disease; before 40 U/ml,30 U/ml
same,clinical outcome,diabetes mellitus,significant subjective improvement of coronary symptoms
same,pentosidine after treatment,diabetes mellitus; before 2.3 pmol/mg,≤ 1.7 pmol/mg
same,Amadori serum albumin after treatment,diabetes mellitus; before 41 U/ml,≤ 30 U/ml
same,thrombotic and atheroembolic complications after artificial valve implantation,[3],less thrombotic and atheroembolic complications
same,development of premature senescence (SA β-galactosidase staining) in HUVEC grown on glycated collagen,"[1]; 0.1 mM ebselen applied day 1, 2 hours after plating, evaluated on days 3 and 5",completely abolished the development of premature senescence
same,reversal of premature senescence in HUVEC on glycated collagen,"[1]; HUVEC on glycated collagen 3 days, ebselen added every 12 hours from day 3, examined day 5",able to reverse premature senescence at all dilutions of glycated collagen
same,"reversal of premature senescence in HUVECs on GC (SA β-galactosidase staining, FIG. 1)",[1],able to reverse premature senescence at all dilutions of GC
same,development of premature senescence (SA β-galactosidase staining) in HUVECs grown on GC,[1],completely abolished the development of premature senescence
